These are literature values, as cited in PubChem BioAssay AID1259409 (Chemical Carcinogenesis Research Information System (CCRIS), 2018).

Each structure is given as a SMILES string.

The series has as its system rodent chemically induced tumor inhibition, incidence and multiplicity. The series can be described thus: CCRIS tumor inhibitor studies. Particulars: Dose [Inhibitor]: 0, Route [Inhibitor]: ORAL, Species: RAT, Strain/Sex: F344/MALE, Promoter: NONE USED.

With `O=C(O)c1ccc(O)c(O)c1`, the “tumour outcome (control, treated, inhibition, significance)” value is, setting by setting: (Carcinogen: AZOXYMETHANE, 25843-45-2, 1000 PPM IN DIET FOR 28 WK BEGINNING 1 WK POST CARCINOGEN TREATMENT (STUDY DURATION: 32 WK), Target Tissue: Type of Lesion: LARGE INTESTINE: ADENOMA, Dose [Carcinogen]: 15 MG/KG BW 1/WK FOR 3 WK) 2/20 (10%), 2/23 (9%), 10%, not significant; (Carcinogen: AZOXYMETHANE, 25843-45-2, 1000 PPM IN DIET FOR 28 WK BEGINNING 1 WK POST CARCINOGEN TREATMENT (STUDY DURATION: 32 WK), Target Tissue: Type of Lesion: SMALL INTESTINE: ADENOCARCINOMA, Dose [Carcinogen]: 15 MG/KG BW 1/WK FOR 3 WK) 6/20 (30%), 2/23 (9%), 70%, not significant; (Carcinogen: AZOXYMETHANE, 25843-45-2, 1000 PPM IN DIET FOR 28 WK BEGINNING 1 WK POST CARCINOGEN TREATMENT (STUDY DURATION: 32 WK), Target Tissue: Type of Lesion: SMALL INTESTINE: ADENOMA, Dose [Carcinogen]: 15 MG/KG BW 1/WK FOR 3 WK) 1/20 (5%), 1/23 (4%), 20%, not significant; (Carcinogen: DIETHYLNITROSAMINE, 55-18-5, 500 PPM IN DIET BEGINNING 1 WK PRIOR TO CARCINOGEN AND CONTINUING FOR 7 WK FOLLOWED BY BASAL DIET FOR 30 WK (STUDY DU, Target Tissue: Type of Lesion: LIVER: ADENOMA OR CARCINOMA, Dose [Carcinogen]: 40 PPM IN DRINKING WATER FOR 5 WK BEGINNING AT 7 WK OF AGE) 18/18 (100%), 12/17 (71%), 29%, p=0.02; (Carcinogen: DIETHYLNITROSAMINE, 55-18-5, 500 PPM IN DIET FOR 7 WK BEGINNING 1 WK PRIOR TO CARCINOGEN TREATMENT (STUDY DURATION: 37 WK), Target Tissue: Type of Lesion: LIVER: ADENOMA, Dose [Carcinogen]: 40 PPM IN DRINKING WATER FOR 5 WK) 89%, 59%, 34%, not significant; (Carcinogen: DIETHYLNITROSAMINE, 55-18-5, 500 PPM IN DIET FOR 7 WK BEGINNING 1 WK PRIOR TO CARCINOGEN TREATMENT (STUDY DURATION: 37 WK), Target Tissue: Type of Lesion: LIVER: CARCINOMA, Dose [Carcinogen]: 40 PPM IN DRINKING WATER FOR 5 WK) 89%, 71%, 20%, not significant. Further, the “tumour outcome (control, treated, inhibition, significance)” value (Carcinogen: DIETHYLNITROSAMINE, 55-18-5, 500 PPM IN DIET FOR 30 WK BEGINNING 1 WK POST CARCINOGEN TREATMENT (STUDY DURATION: 37 WK), Target Tissue: Type of Lesion: LIVER: ADENOMA, Dose [Carcinogen]: 40 PPM IN DRINKING WATER FOR 5 WK) is given as 89%, 60%, 33%, p<0.05; the “tumour outcome (control, treated, inhibition, significance)” value (Carcinogen: DIETHYLNITROSAMINE, 55-18-5, 1000 PPM IN DIET FOR 7 WK BEGINNING 1 WK PRIOR TO CARCINOGEN TREATMENT (STUDY DURATION: 37 WK), Target Tissue: Type of Lesion: LIVER: ADENOMA, Dose [Carcinogen]: 40 PPM IN DRINKING WATER FOR 5 WK) was 89%, 37%, 58%, p<0.05; the “tumour outcome (control, treated, inhibition, significance)” value (Carcinogen: DIETHYLNITROSAMINE, 55-18-5, 1000 PPM IN DIET FOR 30 WK BEGINNING 1 WK POST CARCINOGEN TREATMENT (STUDY DURATION: 37 WK), Target Tissue: Type of Lesion: LIVER: ADENOMA, Dose [Carcinogen]: 40 PPM IN DRINKING WATER FOR 5 WK) is 89%, 68%, 24%, not significant; the “tumour outcome (control, treated, inhibition, significance)” value (Carcinogen: DIETHYLNITROSAMINE, 55-18-5, 1000 PPM IN DIET FOR 30 WK BEGINNING 1 WK POST CARCINOGEN TREATMENT (STUDY DURATION: 37 WK), Target Tissue: Type of Lesion: LIVER: CARCINOMA, Dose [Carcinogen]: 40 PPM IN DRINKING WATER FOR 5 WK) is on record as 89%, 32%, 64%, p<0.05; the “tumour outcome (control, treated, inhibition, significance)” value (Carcinogen: N-BUTYL-N-(4-HYDROXYBUTYL)NITROSAMINE, 3817-11-6, 500 PPM IN DIET FOR 8 WK BEGINNING 1 WK PRIOR TO CARCINOGEN TREATMENT (STUDY DURATION: 41 WK), Target Tissue: Type of Lesion: BLADDER: CARCINOMA, Dose [Carcinogen]: 0.05% IN DRINKING WATER FOR 6 WK) is listed as 17/22 (77%), 13/22 (59%), 23%, not significant; the “tumour outcome (control, treated, inhibition, significance)” value (Carcinogen: N-BUTYL-N-(4-HYDROXYBUTYL)NITROSAMINE, 3817-11-6, 500 PPM IN DIET FOR 8 WK BEGINNING 1 WK PRIOR TO CARCINOGEN TREATMENT (STUDY DURATION: 41 WK), Target Tissue: Type of Lesion: BLADDER: PAPILLOMA, Dose [Carcinogen]: 0.05% IN DRINKING WATER FOR 6 WK) is on record as 1/22 (5%), 3/22 (14%), -180%, not significant. Also, the “tumour outcome (control, treated, inhibition, significance)” value is, setting by setting: (Carcinogen: N-BUTYL-N-(4-HYDROXYBUTYL)NITROSAMINE, 3817-11-6, 500 PPM IN DIET FOR 33 WK BEGINNING 1 WK POST CARCINOGEN TREATMENT (STUDY DURATION: 41 WK), Target Tissue: Type of Lesion: BLADDER: CARCINOMA, Dose [Carcinogen]: 0.05% IN DRINKING WATER FOR 6 WK) 17/22 (77%), 13/25 (52%), 32%, not significant; (Carcinogen: N-BUTYL-N-(4-HYDROXYBUTYL)NITROSAMINE, 3817-11-6, 500 PPM IN DIET FOR 33 WK BEGINNING 1 WK POST CARCINOGEN TREATMENT (STUDY DURATION: 41 WK), Target Tissue: Type of Lesion: BLADDER: PAPILLOMA, Dose [Carcinogen]: 0.05% IN DRINKING WATER FOR 6 WK) 1/22 (5%), 4/25 (16%), -220%, not significant; (Carcinogen: N-BUTYL-N-(4-HYDROXYBUTYL)NITROSAMINE, 3817-11-6, 1000 PPM IN DIET FOR 8 WK BEGINNING 1 WK PRIOR TO CARCINOGEN TREATMENT (STUDY DURATION: 41 WK), Target Tissue: Type of Lesion: BLADDER: CARCINOMA, Dose [Carcinogen]: 0.05% IN DRINKING WATER FOR 6 WK) 17/22 (77%), 9/22 (41%), 47%, p<0.03; (Carcinogen: N-BUTYL-N-(4-HYDROXYBUTYL)NITROSAMINE, 3817-11-6, 1000 PPM IN DIET FOR 8 WK BEGINNING 1 WK PRIOR TO CARCINOGEN TREATMENT (STUDY DURATION: 41 WK), Target Tissue: Type of Lesion: BLADDER: PAPILLOMA, Dose [Carcinogen]: 0.05% IN DRINKING WATER FOR 6 WK) 1/22 (5%), 0/22 (0%), 100%, not significant; (Carcinogen: N-BUTYL-N-(4-HYDROXYBUTYL)NITROSAMINE, 3817-11-6, 1000 PPM IN DIET FOR 33 WK BEGINNING 1 WK POST CARCINOGEN TREATMENT (STUDY DURATION: 41 WK), Target Tissue: Type of Lesion: BLADDER: CARCINOMA, Dose [Carcinogen]: 0.05% IN DRINKING WATER FOR 6 WK) 17/22 (77%), 12/25 (48%), 38%, p<0.05; (Carcinogen: N-BUTYL-N-(4-HYDROXYBUTYL)NITROSAMINE, 3817-11-6, 1000 PPM IN DIET FOR 33 WK BEGINNING 1 WK POST CARCINOGEN TREATMENT (STUDY DURATION: 41 WK), Target Tissue: Type of Lesion: BLADDER: PAPILLOMA, Dose [Carcinogen]: 0.05% IN DRINKING WATER FOR 6 WK) 1/22 (5%), 2/25 (8%), -60%, not significant. The “tumour outcome (control, treated, inhibition, significance)” value is listed as 17/22 (77%), 8/25 (32%), 58%, p<0.005 (Carcinogen: N-BUTYL-N-(4-HYDROXYBUTYL)NITROSAMINE, 3817-11-6, 2000 PPM IN DIET FOR 8 WK BEGINNING 1 WK PRIOR TO CARCINOGEN TREATMENT (STUDY DURATION: 41 WK), Target Tissue: Type of Lesion: BLADDER: CARCINOMA, Dose [Carcinogen]: 0.05% IN DRINKING WATER FOR 6 WK) and 1/22 (5%), 3/25 (12%), -140%, not significant (Carcinogen: N-BUTYL-N-(4-HYDROXYBUTYL)NITROSAMINE, 3817-11-6, 2000 PPM IN DIET FOR 8 WK BEGINNING 1 WK PRIOR TO CARCINOGEN TREATMENT (STUDY DURATION: 41 WK), Target Tissue: Type of Lesion: BLADDER: PAPILLOMA, Dose [Carcinogen]: 0.05% IN DRINKING WATER FOR 6 WK).
